Results published in ChEMBL document CHEMBL1139278 (2009).

Legend:
Format in all cases: functional
[1] = tested on: Staphylococcus aureus; test: Antimicrobial activity against methicillin-susceptible Staphylococcus aureus infected iv dosed mouse assessed as survival rate after 1 hr of infection
[2] = tested on: Moraxella catarrhalis; test: Antimicrobial activity against Moraxella catarrhalis K1209 by NCCLS method
[3] = tested on: Streptococcus pneumoniae; test: Antimicrobial activity against penicillin-resistant Streptococcus pneumoniae KT2524 by NCCLS method
[4] = tested on: Streptococcus pyogenes; test: Antimicrobial activity against Streptococcus pyogenes ATCC 112344 by NCCLS method
[5] = tested on: Streptococcus pneumoniae; test: Antimicrobial activity against penicillin-susceptible Streptococcus pneumoniae ATCC 49619 by NCCLS method
[6] = tested on: Haemophilus influenzae; test: Antimicrobial activity against Haemophilus influenzae TH13 by NCCLS method
[7] = tested on: Staphylococcus aureus; test: Antimicrobial activity against methicillin-susceptible Staphylococcus aureus Smith by NCCLS method
[8] = tested on: Staphylococcus aureus; test: Antimicrobial activity against methicillin-resistant Staphylococcus aureus KMP9
[9] = tested on: Enterococcus faecium; test: Antimicrobial activity against vancomycin-resistant Enterococcus faecium KU1778 by NCCLS method

| Compound | ED50 [1] [mg/kg] | MIC [2] [µg/mL] | MIC [3] [µg/mL] | MIC [4] [µg/mL] | MIC [5] [µg/mL] | MIC [6] [µg/mL] | MIC [7] [µg/mL] | MIC [8] [µg/mL] | MIC [9] [µg/mL] |
| --- | --- | --- | --- | --- | --- | --- | --- | --- | --- |
| C=C[C@]1(C)C[C@@H](OC(=O)CN2CCN(C(=O)CCn3cnc4c(N5CCC(N)C5)ncnc43)CC2C)[C@]2(C)[C@H](C)CC[C@]3(CCC(=O)[C@@H]32)[C@@H](C)[C@@H]1O.Cl.Cl (some centres undefined) | 1.42 | 0.125 | 0.063 | 0.032 | 0.063 | 2 | 0.25 | 0.5 | 0.125 |
| C=C[C@]1(C)C[C@@H](OC(=O)CN2CCN(C(=O)CCn3cnc4c(N5CCC(N)C5)ncnc43)C[C@H]2C)[C@]2(C)[C@H](C)CC[C@]3(CCC(=O)[C@@H]32)[C@@H](C)[C@@H]1O.Cl.Cl (some centres undefined) | 1.42 | 0.063 | 0.063 | 0.016 | 0.032 | 2 | 0.25 | 0.5 | 0.063 |
| C=C[C@]1(C)C[C@@H](OC(=O)CN2CC(C)N(C(=O)CCn3cnc4c(N5CCC(N)C5)ncnc43)CC2C)[C@]2(C)[C@H](C)CC[C@]3(CCC(=O)[C@@H]32)[C@@H](C)[C@@H]1O.Cl.Cl (some centres undefined) | 3.13 | 0.125 | 0.063 | 0.032 | 0.063 | 4 | 0.25 | 0.25 | 0.125 |
| C=C[C@]1(C)C[C@@H](OC(=O)CN2CCN(C(=O)CCn3cnc4c(N5CCC(N)C5)ncnc43)C(C)(C)C2)[C@]2(C)[C@H](C)CC[C@]3(CCC(=O)[C@@H]32)[C@@H](C)[C@@H]1O.Cl.Cl (some centres undefined) | 2.32 | 0.032 | 0.032 | 0.016 | 0.032 | 4 | 0.125 | 0.125 | 0.063 |
| C=C[C@]1(C)C[C@@H](OC(=O)CN2CC(C)N(C(=O)CCn3cnc4c(N5CCC(N)C5)ncnc43)C(C)C2)[C@]2(C)[C@H](C)CC[C@]3(CCC(=O)[C@@H]32)[C@@H](C)[C@@H]1O.Cl.Cl (some centres undefined) | > 3.13 | 0.063 | 0.016 | 0.016 | 0.016 | 4 | 0.125 | 0.125 | 0.063 |
| C=C[C@]1(C)C[C@@H](OC(=O)CN2CCN(C(=O)CCn3cnc4c(N5CCC(N)C5)ncnc43)C[C@@H]2C)[C@]2(C)[C@H](C)CC[C@]3(CCC(=O)[C@@H]32)[C@@H](C)[C@@H]1O.Cl (some centres undefined) | 1.28 | 0.125 | 0.063 | 0.032 | 0.125 | 4 | 0.25 | 0.5 | 0.125 |
